Values of other authors in patent US8884020B2, “Indole compounds” (Ironwood Pharmaceuticals, Inc., priority 2006, dated 2014).

System: prostaglandin synthesis
Conditions: Shen et al. 1977

For `Cc1c(CC(=O)O)c2cc(O)ccc2n1C(=O)c1ccc(Cl)cc1` [desmethyl metabolite, (1-(4-chlorobenzoyl)-5-hydroxy-2-methyl-1H-indol-3-yl]acetic acid], the “ability to inhibit prostaglandin synthesis” value is given as “some ability to inhibit prostaglandin synthesis”.
